From patent publication US9682118B1, “Inhibition of metastasis by cell penetrating peptides” (University of Mississippi Medical Center, priority 2006, dated 2017)

Tested on: SKOV-3 cells
Assay: Boyden chamber migration assay
Assay type: cell-based
Conditions: SKOV-3, 8 μm pores, 24 h
Method: FIG. 14 is data related to a Boyden chamber assay. […] Cells were washed, fixed, stained with hematoxylin and 4 random fields were counted at 20× magnification. FIG. 14B is a set of images after cells were later incubated with Hoechst dye for 10 min. and images were obtained at 10× magnification.
In order to confirm the role of CPP-ELPs in preventing migration of SKOV-3 cells, a boyden chamber assay was performed (35). This assay involves a membrane with pore size of 8 μm. SKOV-3 cells are plated on one side of the membrane, and a chemoattractant (FBS) is placed on the opposite side of the membrane. The cells are allowed to migrate trough the pores toward the chemoattractant for […], and the cells which penetrated the membrane are quantified by cell counting and independently by Hoechst staining and fluorescence microscopy. […] Serum starvation of cells overnight ruled out the fact that proliferation was a contributing factor in this assay.

Tat (YGRKKRRQRRR; Tat CPP) [Tat peptide]
migration across the membrane toward FBS: migrated across the membrane
